According to PubChem BioAssay AID190 (DTP/NCI, 2004):
Where “and” joins values, the source holds several entries; their conditions need not be identical. Equal entries are not always repeated. Inconclusive results and toxic doses are left out.

Test system: AKR/Lw mice, AKR lymphoma ip, median survival T/C
Assay: NCI In Vivo Anticancer Drug Screen. Data for tumor model Lymphoma AKR (Transplanted) (intraperitoneal) in AKR/Lw mice
Settings: endpoint: median survival time, higher = longer survival
Procedure: The antitumor activity of compounds was measured in mice bearing transplantable tumors. Survival or tumor size were measured and the results are expressed as the measurement made in the treated group (T) divided by the measurement made in the vehicle treated control group (C). The tumor model used in this assay is Lymphoma AKR (Transplanted) (intraperitoneal) in AKR/Lw mice

**Q.** With Cc1c2ccncc2c(C)c2c1[nH]c1ccccc12 as the molecule, how does the T/C (dose: 1.2 mg/kg/injection, schedule: Q01DX009 (ip), vehicle: Klucel (hydroxypropylcellulose) (HPC)) read?
**A.** 87 % of control

**Q.** What about the T/C (dose: 1.25 mg/kg/injection, schedule: Q01DX009 (ip), vehicle: saline) of the same molecule?
**A.** 165 % of control

**Q.** What about the T/C (dose: 1.5 mg/kg/injection, schedule: Q01DX009 (ip), vehicle: saline) of the same molecule?
**A.** 90 % of control and 118 % of control

**Q.** What about the T/C (dose: 3.0 mg/kg/injection, schedule: Q01DX009 (ip), vehicle: saline) of the same molecule?
**A.** 104 % of control and 121 % of control

**Q.** What about the T/C (dose: 5.0 mg/kg/injection, schedule: Q01DX009 (ip), vehicle: saline) of the same molecule?
**A.** 111 % of control

**Q.** And the T/C (dose: 6.0 mg/kg/injection, schedule: Q01DX009 (ip), vehicle: saline)?
**A.** 116 % of control

**Q.** And the T/C (dose: 7.5 mg/kg/injection, schedule: Q04DX003 (ip), vehicle: Klucel (hydroxypropylcellulose) (HPC))?
**A.** 88 % of control

**Q.** And the T/C (dose: 7.5 mg/kg/injection, schedule: Q04DX003 (ip), vehicle: saline)?
**A.** 96 % of control

**Q.** What about the T/C (dose: 10.0 mg/kg/injection, schedule: Q01DX009 (ip), vehicle: saline) of the same molecule?
**A.** 152 % of control

**Q.** And the T/C (dose: 12.5 mg/kg/injection, schedule: Q01DX001 (ip), vehicle: Klucel (hydroxypropylcellulose) (HPC))?
**A.** 97 % of control

**Q.** What about the T/C (dose: 12.5 mg/kg/injection, schedule: Q01DX001 (ip), vehicle: saline) of the same molecule?
**A.** 124 % of control

**Q.** What about the T/C (dose: 15.0 mg/kg/injection, schedule: Q01DX009 (ip), vehicle: Klucel (hydroxypropylcellulose) (HPC)) of the same molecule?
**A.** 103 % of control

**Q.** What about the T/C (dose: 15.0 mg/kg/injection, schedule: Q04DX003 (ip), vehicle: Klucel (hydroxypropylcellulose) (HPC)) of the same molecule?
**A.** 119 % of control

**Q.** What about the T/C (dose: 15.0 mg/kg/injection, schedule: Q04DX003 (ip), vehicle: saline) of the same molecule?
**A.** 112 % of control

**Q.** What about the T/C (dose: 18.75 mg/kg/injection, schedule: Q04DX003 (ip), vehicle: saline) of the same molecule?
**A.** 111 % of control and 116 % of control and 117 % of control

**Q.** And the T/C (dose: 18.8 mg/kg/injection, schedule: Q04DX003 (ip), vehicle: Klucel (hydroxypropylcellulose) (HPC))?
**A.** 105 % of control

**Q.** And the T/C (dose: 20.0 mg/kg/injection, schedule: Q01DX009 (ip), vehicle: Klucel (hydroxypropylcellulose) (HPC))?
**A.** 86 % of control

**Q.** What about the T/C (dose: 20.0 mg/kg/injection, schedule: Q01DX009 (ip), vehicle: saline) of the same molecule?
**A.** 111 % of control

**Q.** And the T/C (dose: 20.0 mg/kg/injection, schedule: Q04DX003 (ip), vehicle: Klucel (hydroxypropylcellulose) (HPC))?
**A.** 119 % of control

**Q.** What about the T/C (dose: 25.0 mg/kg/injection, schedule: Q01DX001 (ip), vehicle: Klucel (hydroxypropylcellulose) (HPC)) of the same molecule?
**A.** 123 % of control

**Q.** What about the T/C (dose: 25.0 mg/kg/injection, schedule: Q01DX001 (ip), vehicle: saline) of the same molecule?
**A.** 120 % of control

**Q.** What about the T/C (dose: 25.0 mg/kg/injection, schedule: Q01DX005 (ip), vehicle: water) of the same molecule?
**A.** 263 % of control

**Q.** What about the T/C (dose: 25.0 mg/kg/injection, schedule: Q04DX003 (ip), vehicle: Klucel (hydroxypropylcellulose) (HPC)) of the same molecule?
**A.** 153 % of control

**Q.** What about the T/C (dose: 30.0 mg/kg/injection, schedule: Q04DX003 (ip), vehicle: Klucel (hydroxypropylcellulose) (HPC)) of the same molecule?
**A.** 104 % of control and 111 % of control

**Q.** And the T/C (dose: 35.0 mg/kg/injection, schedule: Q04DX003 (ip), vehicle: Klucel (hydroxypropylcellulose) (HPC))?
**A.** 116 % of control

**Q.** And the T/C (dose: 50.0 mg/kg/injection, schedule: Q01DX001 (ip), vehicle: Klucel (hydroxypropylcellulose) (HPC))?
**A.** 118 % of control

**Q.** And the T/C (dose: 50.0 mg/kg/injection, schedule: Q01DX005 (ip), vehicle: water)?
**A.** 197 % of control

**Q.** What about the T/C (dose: 50.0 mg/kg/injection, schedule: Q04DX003 (ip), vehicle: Klucel (hydroxypropylcellulose) (HPC)) of the same molecule?
**A.** 153 % of control

**Q.** What about the T/C (dose: 50.0 mg/kg/injection, schedule: Q04DX003 (ip), vehicle: water) of the same molecule?
**A.** 226 % of control

**Q.** And the T/C (dose: 75.0 mg/kg/injection, schedule: Q01DX001 (ip), vehicle: Klucel (hydroxypropylcellulose) (HPC))?
**A.** 123 % of control

**Q.** And the T/C (dose: 100.0 mg/kg/injection, schedule: Q01DX001 (ip), vehicle: Klucel (hydroxypropylcellulose) (HPC))?
**A.** 111 % of control and 121 % of control

**Q.** What about the T/C (dose: 100.0 mg/kg/injection, schedule: Q04DX003 (ip), vehicle: Klucel (hydroxypropylcellulose) (HPC)) of the same molecule?
**A.** 107 % of control

**Q.** And the T/C (dose: 100.0 mg/kg/injection, schedule: Q04DX003 (ip), vehicle: saline)?
**A.** 100 % of control

**Q.** What about the T/C (dose: 100.0 mg/kg/injection, schedule: Q04DX003 (ip), vehicle: water) of the same molecule?
**A.** 315 % of control

**Q.** And the T/C (dose: 150.0 mg/kg/injection, schedule: Q01DX001 (ip), vehicle: Klucel (hydroxypropylcellulose) (HPC))?
**A.** 102 % of control

**Q.** And the T/C (dose: 150.0 mg/kg/injection, schedule: Q01DX001 (ip), vehicle: saline)?
**A.** 115 % of control

**Q.** What does the source list for CC1CCC(NC(=O)N(CCCl)N=O)CC1 (configuration not stated)?
**A.** T/C (dose: 1.25 mg/kg/injection, schedule: Q14DX003 (ip), vehicle: saline with Tween-80): 112 % of control; T/C (dose: 2.0 mg/kg/injection, schedule: Q04DX003 (ip), vehicle: saline with Tween-80): 106 % of control; T/C (dose: 2.0 mg/kg/injection, schedule: Q07DX004 (ip), vehicle: saline with Tween-80): 113 % of control; T/C (dose: 2.5 mg/kg/injection, schedule: Q01DX006 (ip), vehicle: saline with Tween-80): 93 % of control; T/C (dose: 2.5 mg/kg/injection, schedule: Q09DX002 (ip), vehicle: saline with Tween-80): 102 % of control; T/C (dose: 2.5 mg/kg/injection, schedule: Q10DX002 (ip), vehicle: saline with Tween-80): 108 % of control; T/C (dose: 2.5 mg/kg/injection, schedule: Q14DX003 (ip), vehicle: saline with Tween-80): 108 % of control and 112 % of control (2×); T/C (dose: 3.0 mg/kg/injection, schedule: Q01DX001 (ip), vehicle: saline with Tween-80): 111 % of control; T/C (dose: 4.4 mg/kg/injection, schedule: Q04DX003 (ip), vehicle: saline with Tween-80): 92 % of control; T/C (dose: 4.4 mg/kg/injection, schedule: Q07DX004 (ip), vehicle: saline with Tween-80): 124 % of control; T/C (dose: 4.8 mg/kg/injection, schedule: Q01DX001 (ip), vehicle: saline with Tween-80): 116 % of control; T/C (dose: 5.0 mg/kg/injection, schedule: Q01DX006 (ip), vehicle: saline with Tween-80): 90 % of control; T/C (dose: 5.0 mg/kg/injection, schedule: Q09DX002 (ip), vehicle: saline with Tween-80): 101 % of control; T/C (dose: 5.0 mg/kg/injection, schedule: Q10DX002 (ip), vehicle: saline with Tween-80): 94 % of control; T/C (dose: 6.25 mg/kg/injection, schedule: Q07DX003 (ip), vehicle: saline): 106 % of control and 118 % of control; T/C (dose: 6.7 mg/kg/injection, schedule: Q07DX004 (ip), vehicle: saline with Tween-80): 118 % of control; T/C (dose: 7.5 mg/kg/injection, schedule: Q01DX006 (ip), vehicle: saline with Tween-80): 120 % of control; T/C (dose: 7.5 mg/kg/injection, schedule: Q09DX002 (ip), vehicle: saline with Tween-80): 101 % of control; T/C (dose: 8.0 mg/kg/injection, schedule: Q09DX002 (ip), vehicle: saline with Tween-80): 86 % of control; T/C (dose: 10.0 mg/kg/injection, schedule: Q01DX006 (ip), vehicle: saline with Tween-80): 112 % of control; T/C (dose: 10.0 mg/kg/injection, schedule: Q04DX003 (ip), vehicle: saline with Tween-80): 66 % of control; T/C (dose: 10.0 mg/kg/injection, schedule: Q04DX004 (ip), vehicle: Klucel (hydroxypropylcellulose) (HPC)): 86 % of control; T/C (dose: 10.0 mg/kg/injection, schedule: Q07DX004 (ip), vehicle: saline with Tween-80): 107 % of control; T/C (dose: 10.0 mg/kg/injection, schedule: Q09DX002 (ip), vehicle: saline with Tween-80): 107 % of control (2×) and 117 % of control; T/C (dose: 10.0 mg/kg/injection, schedule: Q10DX002 (ip), vehicle: saline with Tween-80): 116 % of control; T/C (dose: 11.0 mg/kg/injection, schedule: Q01DX001 (ip), vehicle: saline with Tween-80): 106 % of control; T/C (dose: 12.0 mg/kg/injection, schedule: Q01DX001 (ip), vehicle: saline): 103 % of control; T/C (dose: 13.5 mg/kg/injection, schedule: Q10DX002 (ip), vehicle: saline with Tween-80): 104 % of control; T/C (dose: 15.0 mg/kg/injection, schedule: Q04DX004 (ip), vehicle: Klucel (hydroxypropylcellulose) (HPC)): 94 % of control; T/C (dose: 15.0 mg/kg/injection, schedule: Q14DX003 (ip), vehicle: saline with Tween-80): 109 % of control; T/C (dose: 16.0 mg/kg/injection, schedule: Q01DX001 (ip), vehicle: saline with Tween-80): 111 % of control; T/C (dose: 16.0 mg/kg/injection, schedule: Q09DX002 (ip), vehicle: saline with Tween-80): 86 % of control; T/C (dose: 20.0 mg/kg/injection, schedule: Q04DX004 (ip), vehicle: Klucel (hydroxypropylcellulose) (HPC)): 86 % of control; T/C (dose: 25.0 mg/kg/injection, schedule: Q07DX003 (ip), vehicle: saline): 118 % of control and 121 % of control; T/C (dose: 27.0 mg/kg/injection, schedule: Q10DX002 (ip), vehicle: saline with Tween-80): 116 % of control; T/C (dose: 32.0 mg/kg/injection, schedule: Q09DX002 (ip), vehicle: saline with Tween-80): 80 % of control; T/C (dose: 36.0 mg/kg/injection, schedule: Q01DX001 (ip), vehicle: saline with Tween-80): 116 % of control; T/C (dose: 36.0 mg/kg/injection, schedule: Q01DX001 (ip), vehicle: saline): 262 % of control; T/C (dose: 45.0 mg/kg/injection, schedule: Q10DX002 (ip), vehicle: saline with Tween-80): 103 % of control; T/C (dose: 48.0 mg/kg/injection, schedule: Q01DX001 (ip), vehicle: saline): 100 % of control and 117 % of control; T/C (dose: 54.0 mg/kg/injection, schedule: Q10DX002 (ip), vehicle: saline with Tween-80): 55 % of control
